Measurements as given in ChEMBL document CHEMBL1139097, “Synthesis and QSAR studies on hypotensive 1-[3-(4-substituted phenylthio) propyl]-4-(substituted phenyl) piperazines” (Bioorg Med Chem Lett, 2007).
pKi: −log10 of the molar value.

Assays:
[1] = molecular target: 5-hydroxytryptamine receptor 2A (Rattus norvegicus) (UniProt P14842); assay: Displacement of [3H]ketanserin from rat cloned 5HT2A receptor expressed in NIH-3T3-GF6 cells at 10^-6M relative to ketanserin; type: cell-based
[2] = molecular target: 5-hydroxytryptamine receptor 2A (Rattus norvegicus, UniProt P14842); assay: Displacement of [3H]ketanserin from rat cloned 5HT2A receptor expressed in NIH-3T3-GF6 cells; type: cell-based
Felis catus = assay: Hypotensive activity in anaesthetized cat assessed as blood pressure fall at 2 umol/kg, iv; type: functional

Sequence of 5-hydroxytryptamine receptor 2A (Rattus norvegicus) (P14842 whole entry): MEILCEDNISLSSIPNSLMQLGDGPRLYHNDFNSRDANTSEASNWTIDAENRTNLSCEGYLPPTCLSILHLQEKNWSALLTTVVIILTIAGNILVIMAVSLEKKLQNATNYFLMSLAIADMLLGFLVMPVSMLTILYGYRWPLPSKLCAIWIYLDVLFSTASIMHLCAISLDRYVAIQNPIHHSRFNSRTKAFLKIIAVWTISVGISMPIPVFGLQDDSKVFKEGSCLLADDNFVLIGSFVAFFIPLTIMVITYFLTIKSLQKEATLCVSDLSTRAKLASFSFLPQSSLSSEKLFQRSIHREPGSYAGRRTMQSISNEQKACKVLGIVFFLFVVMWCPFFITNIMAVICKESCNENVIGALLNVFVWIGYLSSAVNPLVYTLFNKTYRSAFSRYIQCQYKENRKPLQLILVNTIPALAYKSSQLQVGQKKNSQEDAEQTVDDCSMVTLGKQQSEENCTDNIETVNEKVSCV
Sequence of 5-hydroxytryptamine receptor 2A (P14842 whole entry): as above

Activity [1]	pKi [2]	SMILES	Activity (Felis catus)
94.7%	8.22	CC(=O)Nc1ccc(SCCCN2CCN(c3cccc(C)c3)CC2)cc1	55%
–	–	Fc1ccc(N2CCN(CCCSc3ccc(Br)cc3)CC2)cc1	19.86%
–	–	Fc1ccc(N2CCN(CCCSc3ccc(Cl)cc3)CC2)cc1	42.31%
37.1%	–	COc1ccc(N2CCN(CCCSc3ccc(Br)cc3)CC2)cc1	23.06%
–	–	Cc1ccc(SCCCN2CCN(c3ccc(F)cc3)CC2)cc1	21.74%
–	–	Clc1ccc(N2CCN(CCCSc3ccccc3)CC2)cc1Cl	45.83%
–	–	COc1ccc(SCCCN2CCN(c3cccc(C(F)(F)F)c3)CC2)cc1	53.42%
–	–	Fc1ccc(SCCCN2CCN(c3ccc(Cl)c(Cl)c3)CC2)cc1	38.3%
80.5%	7.68	Cc1cccc(N2CCN(CCCSc3ccc([N+](=O)[O-])cc3)CC2)c1	84.41%
–	–	Clc1cccc(N2CCN(CCCSc3ccccc3)CC2)c1	55.99%
37.4%	–	c1ccc(SCCCN2CCN(c3ccccc3)CC2)cc1	41.07%
–	–	Cc1cccc(N2CCN(CCCSc3ccc(F)cc3)CC2)c1	38.3%
75.6%	7.87	Cc1cccc(N2CCN(CCCSc3ccccc3)CC2)c1	65.15%
–	–	COc1ccc(SCCCN2CCN(c3ccc(F)cc3)CC2)cc1	17.46%
–	–	COc1ccccc1N1CCN(CCCSc2ccccc2)CC1	26.23%
–	–	Cc1ccccc1N1CCN(CCCSc2ccc(Cl)cc2)CC1	40%
–	–	CC(=O)Nc1ccc(SCCCN2CCN(c3ccc(Cl)c(Cl)c3)CC2)cc1	20%
–	–	COc1ccccc1N1CCN(CCCSc2ccc(Br)cc2)CC1	21.59%
–	–	Cc1ccc(SCCCN2CCN(c3ccc(Cl)c(Cl)c3)CC2)cc1	36.36%
25.7%	–	COc1ccc(N2CCN(CCCSc3ccc(F)cc3)CC2)cc1	12.49%
–	–	COc1ccc(SCCCN2CCN(c3cccc(F)c3)CC2)cc1	17.02%

Activity [1]	pKi [2]	SMILES	Activity (Felis catus)
–	–	CCNc1ccc(SCCCN2CCN(c3ccccc3C)CC2)cc1	48.65%
–	–	Cc1ccc(SCCCN2CCN(c3cccc(C)c3)CC2)cc1	55.74%
85.4%	–	CC(=O)Nc1ccc(SCCCN2CCN(c3ccc(F)cc3)CC2)cc1	21.21%
–	–	Cc1ccc(SCCCN2CCN(c3ccccc3C)CC2)cc1	61.02%
–	–	Nc1ccc(SCCCN2CCN(c3ccc(F)cc3)CC2)cc1	13.51%
–	–	CCNc1ccc(SCCCN2CCN(c3cccc(C)c3)CC2)cc1	41.14%
–	–	COc1ccc(SCCCN2CCN(c3cccc(Cl)c3)CC2)cc1	42.62%
–	–	Cc1cccc(N2CCN(CCCSc3ccc(N)cc3)CC2)c1	24.28%
32.9%	–	Fc1ccc(SCCCN2CCN(c3ccc(F)cc3)CC2)cc1	20.66%
–	–	Fc1ccc(N2CCN(CCCSc3ccccc3)CC2)cc1	20.69%
–	–	COc1ccc(N2CCN(CCCSc3ccccc3)CC2)cc1	15.38%
72.7%	7.68	CC(=O)Nc1ccc(SCCCN2CCN(c3ccccc3C)CC2)cc1	51.61%
–	–	Cc1ccccc1N1CCN(CCCSc2ccc([N+](=O)[O-])cc2)CC1	42%
37%	–	Fc1ccc(SCCCN2CCN(c3ccccc3)CC2)cc1	14.28%
–	–	COc1ccc(SCCCN2CCN(c3ccc(Cl)c(Cl)c3)CC2)cc1	21.05%
–	–	O=[N+]([O-])c1ccc(SCCCN2CCN(c3ccc(F)cc3)CC2)cc1	25.87%
–	–	Cc1ccccc1N1CCN(CCCSc2ccc(F)cc2)CC1	37.59%
–	–	Cc1cccc(N2CCN(CCCSc3ccc(Cl)cc3)CC2)c1	43.8%
–	–	COc1ccc(SCCCN2CCN(c3cccc(C)c3)CC2)cc1	21.4%
–	–	Fc1ccc(SCCCN2CCN(c3cccc(F)c3)CC2)cc1	34%
–	–	Clc1ccc(SCCCN2CCN(c3ccc(Cl)c(Cl)c3)CC2)cc1	26.58%
